≈ marks a conversion by molar mass, not a printed value.
Experiments:
[1] = tested on: Aspergillus fumigatus; test: Antifungal activity against Aspergillus fumigatus by CLSI based broth microdilution method; assay type: functional
[2] = tested on: Candida albicans; test: Antifungal activity against FCZ-resistant Candida albicans 904 by CLSI based broth microdilution method; assay type: functional
[3] = tested on: Candida albicans; test: Antifungal activity against Candida albicans by CLSI based broth microdilution method; assay type: functional
[4] = tested on: Candida albicans; test: Antifungal activity against FCZ-resistant Candida albicans 17# by CLSI based broth microdilution method; assay type: functional
[5] = tested on: Cryptococcus neoformans; test: Antifungal activity against Cryptococcus neoformans by CLSI based broth microdilution method; assay type: functional
[6] = tested on: Candida albicans; test: Fungicidal activity against FCZ-resistant Candida albicans 632; assay type: functional
[7] = tested on: Candida albicans; test: Fungicidal activity against FCZ-resistant Candida albicans 901; assay type: functional
[8] = tested on: [Candida] zeylanoides; test: Antifungal activity against Candida zeylanoides by CLSI based broth microdilution method; assay type: functional; settings: Dujonia zeylanoides
[9] = tested on: Candida albicans; test: Fungicidal activity against FCZ-resistant Candida albicans 17#; assay type: functional
[10] = tested on: Candida albicans; test: Antifungal activity against Candida albicans sc5314 by CLSI based broth microdilution method; assay type: functional
[11] = tested on: Candida albicans; test: Antifungal activity against FCZ-resistant Candida albicans 901 by CLSI based broth microdilution method; assay type: functional
[12] = tested on: Candida albicans; test: Fungicidal activity against FCZ-resistant Candida albicans CaR; assay type: functional
[13] = tested on: Candida parapsilosis; test: Antifungal activity against Candida parapsilosis by CLSI based broth microdilution method; assay type: functional; settings: Lodderomyces parapsilosis
[14] = tested on: Candida albicans; test: Antifungal activity against FCZ-resistant Candida albicans CaR by CLSI based broth microdilution method; assay type: functional
[15] = tested on: Nakaseomyces glabratus; test: Antifungal activity against Candida glabrata by CLSI based broth microdilution method; assay type: functional
[16] = tested on: Candida albicans; test: Antifungal activity against FCZ-resistant Candida albicans 632 by CLSI based broth microdilution method; assay type: functional
[17] = tested on: Candida albicans; test: Fungicidal activity against Candida albicans sc5314; assay type: functional
[18] = tested on: Candida albicans; test: Fungicidal activity against Candida albicans; assay type: functional
[19] = tested on: Candida albicans; test: Fungicidal activity against FCZ-resistant Candida albicans 904; assay type: functional
[20] = tested on: Pichia kudriavzevii; test: Antifungal activity against Pichia kudriavzevii by CLSI based broth microdilution method; assay type: functional
[21] = Cytotoxicity against human HL-60 cells by MTT assay; assay type: toxicity, cell-based
[22] = Cytotoxicity against human MDA-MB-231 cells by MTT assay; assay type: toxicity, cell-based
[23] = tested on: Candida albicans; test: Antibiofilm activity against Candida albicans SC5314 assessed as sessile minimum inhibitory concentration measured after 6 hrs by XTT assay; assay type: functional
[24] = tested on: Candida albicans; test: Antibiofilm activity against Candida albicans SC5314 assessed as sessile minimum inhibitory concentration measured after 24 hrs by XTT assay; assay type: functional
[25] = Metabolic stability in mouse liver microsome assessed as clearance; assay type: ADME; settings: liver microsomes, read-out: CLH
[26] = tested on: Candida albicans; test: Antibiofilm activity against Candida albicans CPCC400616 assessed as sessile minimum inhibitory concentration measured after 6 hrs by XTT assay; assay type: functional
[27] = Metabolic stability in mouse liver microsome assessed as half life; assay type: ADME; settings: liver microsomes
[28] = tested on: Candida albicans; test: Antibiofilm activity against Candida albicans CPCC400616 assessed as sessile minimum inhibitory concentration measured after 3 hrs by XTT assay; assay type: functional
[29] = tested on: Candida albicans; test: Antibiofilm activity against Candida albicans CPCC400616 assessed as sessile minimum inhibitory concentration measured after 24 hrs by XTT assay; assay type: functional
[30] = tested on: Candida albicans; test: Antibiofilm activity against Candida albicans CPCC400616 assessed as sessile minimum inhibitory concentration measured after 1.5 hrs by XTT assay; assay type: functional
[31] = tested on: Candida albicans; test: Antibiofilm activity against Candida albicans SC5314 assessed as sessile minimum inhibitory concentration measured after 1.5 hrs by XTT assay; assay type: functional
[32] = Cytotoxicity against human PC-3 cells by MTT assay; assay type: toxicity, cell-based
[33] = tested on: Candida albicans; test: Antibiofilm activity against Candida albicans SC5314 assessed as sessile minimum inhibitory concentration measured after 3 hrs by XTT assay; assay type: functional

SMILES: Clc1ccc(C(Cn2ccnc2)[Se]C(Cn2ccnc2)c2ccc(Cl)cc2Cl)c(Cl)c1 (stereo not given)
- MIC [1]: > 64 mg/L
- MIC [2]: 16 mg/L (≈ 28.6 µM)
- MIC [3]: 16 mg/L (≈ 28.6 µM)
- MIC [4]: 2 mg/L (≈ 3.58 µM)
- MIC [5]: 64 mg/L (≈ 114 µM)
- MFC [6]: > 64 mg/L
- MFC [7]: > 64 mg/L
- MIC [8]: 8 mg/L (≈ 14.3 µM)
- MFC [9]: > 64 mg/L
- MIC [10]: 2 mg/L (≈ 3.58 µM)
- MIC [11]: 64 mg/L (≈ 114 µM)
- MFC [12]: > 64 mg/L
- MIC [13]: 64 mg/L (≈ 114 µM)
- MIC [14]: 2 mg/L (≈ 3.58 µM)
- MIC [15]: 64 mg/L (≈ 114 µM)
- MIC [16]: 16 mg/L (≈ 28.6 µM)
- MFC [17]: 64 mg/L (≈ 114 µM)
- MFC [18]: > 64 mg/L
- MFC [19]: 32 mg/L (≈ 57.2 µM)
- MIC [20]: 128 mg/L (≈ 229 µM)

SMILES: COc1cccc2c1C(=O)c1c(O)c3c(c(O)c1C2=O)C[C@@](O)(C(=O)CO)C[C@@H]3O[C@H]1C[C@H](N)[C@H](O)[C@H](C)O1 [DOXORUBICIN]
- IC50 [21]: < 0.125 µM

SMILES: Clc1ccc(C(Cn2ccnc2)[Se][Se]C(Cn2ccnc2)c2ccc(Cl)cc2)cc1 (stereo not given)
- IC50 [22]: 5.5 µM
- MIC50 [23]: 0.5 mg/L (≈ 0.878 µM)
- MIC80 [23]: 4 mg/L (≈ 7.03 µM)
- MIC50 [24]: 0.5 mg/L (≈ 0.878 µM)
- MIC80 [24]: 16 mg/L (≈ 28.1 µM)
- MIC [2]: 8 mg/L (≈ 14.1 µM)
- CLint scaled [25]: 1.52 L/h/kg
- MIC [4]: 8 mg/L (≈ 14.1 µM)
- MIC50 [26]: 2 mg/L (≈ 3.51 µM)
- MIC80 [26]: 32 mg/L (≈ 56.2 µM)
- MFC [6]: 8 mg/L (≈ 14.1 µM)
- half-life [27]: 24.4 min
- MIC50 [28]: 0.5 mg/L (≈ 0.878 µM)
- MIC80 [28]: 4 mg/L (≈ 7.03 µM)
- MIC50 [29]: 32 mg/L (≈ 56.2 µM)
- MIC80 [29]: 128 mg/L (≈ 225 µM)
- MIC50 [30]: 0.5 mg/L (≈ 0.878 µM)
- MIC80 [30]: 2 mg/L (≈ 3.51 µM)
- MFC [7]: 4 mg/L (≈ 7.03 µM)
- MFC [9]: > 64 mg/L
- MIC [11]: 1 mg/L (≈ 1.76 µM)
- MIC50 [31]: 0.5 mg/L (≈ 0.878 µM)
- MIC80 [31]: 4 mg/L (≈ 7.03 µM)
- MFC [12]: > 64 mg/L
- MIC [14]: 2 mg/L (≈ 3.51 µM)
- IC50 [32]: 2.91 µM
- MIC50 [33]: 0.5 mg/L (≈ 0.878 µM)
- MIC80 [33]: 4 mg/L (≈ 7.03 µM)
- IC50 [21]: 12.5 µM
- MIC [16]: 4 mg/L (≈ 7.03 µM)
- MFC [17]: 32 mg/L (≈ 56.2 µM)
- MFC [18]: 64 mg/L (≈ 112 µM)
- MFC [19]: 8 mg/L (≈ 14.1 µM)

SMILES: Fc1ccc(C(Cn2ccnc2)[Se]C(Cn2ccnc2)c2ccc(F)cc2F)c(F)c1 (stereo not given)
- IC50 [22]: 8.26 µM
- MIC50 [23]: 4 mg/L (≈ 8.11 µM)
- MIC80 [23]: 16 mg/L (≈ 32.4 µM)
- MIC50 [24]: 1 mg/L (≈ 2.03 µM)
- MIC80 [24]: 4 mg/L (≈ 8.11 µM)
- MIC [1]: > 64 mg/L
- MIC [2]: 8 mg/L (≈ 16.2 µM)
- CLint scaled [25]: 33.5 L/h/kg
- MIC [3]: 4 mg/L (≈ 8.11 µM)
- MIC [4]: 1 mg/L (≈ 2.03 µM)
- MIC50 [26]: 2 mg/L (≈ 4.05 µM)
- MIC80 [26]: 16 mg/L (≈ 32.4 µM)
- MIC [5]: 16 mg/L (≈ 32.4 µM)
- MFC [6]: 8 mg/L (≈ 16.2 µM)
- half-life [27]: 9.8 min
- MIC50 [28]: 1 mg/L (≈ 2.03 µM)
- MIC80 [28]: 8 mg/L (≈ 16.2 µM)
- MIC50 [29]: 4 mg/L (≈ 8.11 µM)
- MIC80 [29]: 64 mg/L (≈ 130 µM)
- MIC50 [30]: 0.25 mg/L (≈ 0.507 µM)
- MIC80 [30]: 2 mg/L (≈ 4.05 µM)
- MFC [7]: 8 mg/L (≈ 16.2 µM)
- MIC [8]: 2 mg/L (≈ 4.05 µM)
- MFC [9]: > 64 mg/L
- MIC [10]: 2 mg/L (≈ 4.05 µM)
- MIC [11]: 4 mg/L (≈ 8.11 µM)
- MIC50 [31]: 1 mg/L (≈ 2.03 µM)
- MIC80 [31]: 4 mg/L (≈ 8.11 µM)
- MFC [12]: > 64 mg/L
- MIC [13]: 8 mg/L (≈ 16.2 µM)
- MIC [14]: 2 mg/L (≈ 4.05 µM)
- IC50 [32]: 1.45 µM
- MIC [15]: 64 mg/L (≈ 130 µM)
- MIC50 [33]: 1 mg/L (≈ 2.03 µM)
- MIC80 [33]: 4 mg/L (≈ 8.11 µM)
- IC50 [21]: 4.61 µM
- MIC [16]: 4 mg/L (≈ 8.11 µM)
- MFC [17]: 8 mg/L (≈ 16.2 µM)
- MFC [18]: 32 mg/L (≈ 64.9 µM)
- MFC [19]: 8 mg/L (≈ 16.2 µM)
- MIC [20]: 32 mg/L (≈ 64.9 µM)

— ChEMBL document CHEMBL5352410, “Discovery of novel selenium-containing azole derivatives as antifungal agents by exploiting the hydrophobic cleft of CYP51” (Eur J Med Chem, 2022)
